Patent publication US20230172920A1, “DOSING REGIMEN FOR TREATING A DISEASE MODULATED BY CSF-1R” (Novartis AG, priority 2020, published 2023)

Tests used:
[1] = tested on: CSF-1R; test: Mouse CSF-1 levels in plasma as biomarker for CSF-1R inhibition (MC38 model); format: in vivo; details: BLZ945 4 days on/3 days off, vs vehicle
Protocol: In order to measure increase of CSF1 in the plasma as a biomarker for CSF-1R inhibition blood sampling was performed at baseline and 6 hours later on indicated days (FIG. 4).
Mouse CSF-1 levels in plasma. A. Changes in CSF-1 levels over time in the different treatment groups. B. Statistical analysis of CSF-1 levels in vehicle vs. BLZ945 4 days on/3 days off and in vehicle vs. BLZ945 4 days on/3 days off in combination with anti-PD-1. Statistical significance was calculated using a two-tailed, unpaired, non-parametric Mann-Whitney Test was performed to compare treatment to control groups.

[2] = tested on: microglia; test: Microglia depletion in lumbar spinal cord, Iba1 qPCR, 8-week SOD1G93A efficacy study (RD-2019-00092); format: in vivo, SOD1G93A mouse; details: for microglia depleted (lumbar spinal cord): 8 weeks
Protocol: (§1) BLZ945 was dosed over an 8-week period in a mouse model of ALS (in house data). BLZ945 was tested for efficacy in preventing or delaying disease progression in the SOD1G93A ALS mouse (RD-2019-00092). […] Normal body weight gain is also impaired in this model. These physiological impairments are considered as mechanistic readouts given that they best recapitulate the clinical disease phenotype (Turner et al 2013). Animals were dosed from 8 to 16 weeks of age with daily (q.d) doses of BLZ945 at either 65 mg/kg, 170 mg/kg, or 170 mg/kg delivered intermittently with a 7 day ON/7 day OFF regimen.
Microglia were depleted by greater than 90% with the high dose (170 mg/kg) of BLZ945 and by about 50% with the low dose (65 mg/kg). […] Blood and CNS exposure to BLZ945 were measured at 3 hours post-dose on the day of necropsy (Table 8). BLZ945 spinal cord exposure ratios (relative to blood) were consistent across dose groups at approximately 0.4 (Table 9).
FIG. 11: Microglia depletion in the lumbar spinal cord, assessed by Iba1 transcript expression by qPCR. Samples were collected at necropsy on the final day of dosing of the eight-week study. Values are group means±SD (n=12-15). Data are presented as fold changes in comparison to the SOD1 vehicle-treated group. Statistical analyses were by Kruskal-Wallis test with Dunn's multiple comparison

[3] = tested on: Soluble TREM2; test: Soluble TREM2 in plasma and CSF, 13-wk cynomolgus monkey study (1779034); format: in vivo; details: for TREM2 plasma values: 7 days-on 7 days-off, mid- and high-doses; for decrease of soluble TREM2 in CSF: high dose
Protocol: In a preclinical 13-wk study (Study number 1779034), cynomolgus monkey were treated with 30, 60 and 200 mg/kg/day BLZ945 on daily oral dosing or at 60 and 200 mg/kg/day on 7 days-on and 7 days-off treatment cycles. With either regimen, the dosing period was for 91 days followed by a drug-free period up to a total of […]. Plasma was collected at pre-dose, during the dosing period at different time points and during the recovery time, and CSF was collected at necropsy at end of dosing and recovery periods. Soluble TREM2, a biomarker of microglial activation, was measured in plasma and CSF.

[4] = tested on: SOD1G93A ALS mouse; test: Body weight, grip strength and CMAP in the SOD1G93A ALS mouse, 8-week study (RD-2019-00092); format: in vivo
Protocol: as §1
FIG. 12: The effect of BLZ945 on body weight change over the eight-week study period. Data are presented as the percentage of body weight change relative to the first dosing day. Values are group means ([…]). Statistical analysis was by mixed linear effect model for repeated measures. * p<0.05; ** p<0.01; **** p<0.0001.
Hind limb grip strength and compound muscle action potentials (CMAP), an assessment of neuromuscular integrity, were measured as mechanistic readouts. In grip strength measurements, SOD1 G93A mice lost muscle force continuously after the 8th week of age. […] This was intermediate to the vehicle-treated SOD1 G93A and NCAR controls (FIG. 13 A). […] However, CMAPs were still lower than those of NCAR animals from study week 4 onward.
FIG. 13: (A) The effect of BLZ945 on grip strength over the eight-week study period. Values are group means±SD (n=12-15). Statistical analysis was by mixed linear effect model for repeated measures. * p<0.05; ** p<0.01; *** p<0.001. (B) The effect of BLZ945 on TA muscle CMAP over the eight-week study period. Values are group means±SD (n=12-15). Statistical analysis was by mixed linear effect model for repeated measures. * […]; ** p<0.01; *** p<0.001.

CNC(=O)c1cc(Oc2ccc3nc(N[C@@H]4CCCC[C@H]4O)sc3c2)ccn1 [BLZ945, 4-((2-(((1R,2R)-2-hydroxycyclohexyl)amino)benzo[d]thiazol-6-yl)oxy)-N-methylpicolinamide]
CSF-1 plasma levels [1]: statistically significant increase | microglia depleted (lumbar spinal cord) ([2]; 65 mg/kg q.d.): about 50% | microglia recovery compared to high dose animals ([2]; 170 mg/kg 7 day ON/7 day OFF, sacrificed at 7 days off): greater than 50% | microglia depleted (lumbar spinal cord) ([2]; 170 mg/kg q.d. continuous): greater than 90% | TREM2 plasma values ([3]; end of off-treatment week): in the range of control values at end of off-treatment week | TREM2 plasma values ([3]; end of on-treatment weeks): decreased at end of on-treatment weeks | decrease of soluble TREM2 in CSF ([3]; continuous dosing 3 months): about 25 fold | time for plasma TREM2 to return to baseline after cessation of dosing ([3]; continuous dosing regimen): ≤ 7 days | soluble TREM2 values at end of recovery phase ([3]; high daily and high on/off treatment groups): returned to that of untreated controls | plasma TREM2, remaining ([3]; mid-continuous (60 mg/kg/day) and high continuous (200 mg/kg/day) daily oral dosing): 40-45 % of the predose value | decrease of soluble TREM2 in CSF ([3]; on-off dosing 3 months): about 4.6 fold | tibialis anterior muscle CMAP ([4]; 65 mg/kg): significantly higher CMAPs than untreated controls until week 6 | body weight gain at end of study ([4]; 65 mg/kg and 170 mg/kg 7 days on/7 days off groups, NCAR approx. 16%, vehicle approx. 7%): approximately 12% | hind limb grip strength ([4]; 65 mg/kg, vs vehicle-treated SOD1 G93A controls, up to week 6 of dosing): significantly higher grip strength | body weight gain ([4]; 170 mg/kg continuously, 8 weeks): constant weight gain at the same rate as NCAR mice | tibialis anterior muscle CMAP ([4]; 170 mg/kg, continuous or intermittent dosing): significantly reduced decline in CMAPs throughout the study period | hind limb grip strength ([4]; 170 mg/kg, continuously or intermittently, vs vehicle-treated SOD1 G93A): maintained significantly greater grip force throughout the study period
